These results are taken from US12661410B2, “Compounds for targeted degradation of RET” (C4 Therapeutics, Inc., priority 2020, dated 2026).

Residue numbers refer to the chain shown, from its start. Read-outs that look alike come from different tables or passages of the source.

By Emax is commonly meant the size of the effect at its maximum, as opposed to the concentration needed. As usually defined, the DC50 is the concentration at which degradation of the target reaches its halfway point.

One test addresses T1, RET(KD: 658-1114 G810R) (Homo sapiens, UniProt P07949, G810R).
T1 construct: 658-1114; expressed in transfected cells; host or cells: 293T.165 (293T cells, generated in-house)
T1 sequence (P07949 658-1114 G810R): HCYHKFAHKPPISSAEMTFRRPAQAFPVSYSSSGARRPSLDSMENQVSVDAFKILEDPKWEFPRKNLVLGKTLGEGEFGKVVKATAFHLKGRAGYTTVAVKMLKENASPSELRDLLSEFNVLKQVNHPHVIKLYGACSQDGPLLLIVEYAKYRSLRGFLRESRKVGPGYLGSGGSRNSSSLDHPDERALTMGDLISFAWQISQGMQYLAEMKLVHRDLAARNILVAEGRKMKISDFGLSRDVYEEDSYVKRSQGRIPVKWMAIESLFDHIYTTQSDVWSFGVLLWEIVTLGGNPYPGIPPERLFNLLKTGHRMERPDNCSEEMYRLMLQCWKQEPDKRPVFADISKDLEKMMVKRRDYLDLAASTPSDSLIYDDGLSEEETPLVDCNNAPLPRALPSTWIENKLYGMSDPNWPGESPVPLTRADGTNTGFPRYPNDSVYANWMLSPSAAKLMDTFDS
The test is described as follows: HiBiT-Degradation, RET G810R degradation assay (Nano-Glo HiBiT Lytic), 293T.165 cells. The format is cell-based. Conditions: for Emax / DC50: 6.0 hours; for Emax: % remaining protein, read-out: 293T.165 RET(KD: 658-1114 G810R) 6.0 hours (Emax); for DC50: read-out: 293T.165 RET(KD: 658-1114 G810R) 6.0 hours (DC50). An outline of the steps: (§1)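 6 h treatment, 293T.144 (WT) / 293T.165 (G810R) cells ectopically expressing HiBiT-fused RET KD; 11-pt half-log dilution, top 10 μM, n=2. Nano-Glo HiBiT lytic detection, luminescence. Output: DC50, Emax (% protein remaining).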
Background: The HiBiT peptide binds its large partner to form an active luciferase.

The target of a further test is T2, RET (658-1114) (Homo sapiens, UniProt P07949).
T2 construct: 658-1114; expressed in transfected cells; host or cells: 293T.144 (293T cells, generated in-house)
T2 sequence (P07949 658-1114): T1 sequence (P07949 658-1114 G810R) with R153G
The test is described as follows: HiBiT-Degradation, RET wild-type degradation assay (Nano-Glo HiBiT Lytic), 293T.144 cells. Conditions: for Emax / DC50: 6.0 hours; for Emax: read-out: 293T.144 RET (658-1114) 6.0 hours (Emax); for DC50: read-out: 293T.144 RET (658-1114) 6.0 hours (DC50). The format is cell-based. The procedure, abridged:
as §1

The mark [1] stands for this setting: half-maximal degradation concentration.

`COc1ccc(CN2C3COCC2CN(c2ccc(-c4nc(-c5cnn(C6CCC(N7CCC(c8ccc(NC9CCC(=O)NC9=O)cc8Cl)CC7)CC6)c5)cn5ncc(C#N)c45)cn2)C3)cn1` (centres unmarked) [Compound 206, 6-[1-[4-[4-[2-chloro-4-[(2,6-dioxo-3-piperidyl)amino]phenyl]-1-piperidyl]cyclohexyl]pyrazol-4-yl]-4-[6-[9-[(6-methoxy-3-pyridyl)methyl]-3-oxa-7,9-diazabicyclo[3.3.1]nonan-7-yl]-3-pyridyl]pyrazolo[1,5-a]pyrazine-3-carbonitrile]: the “293T.165 RET(KD: 658-1114 G810R) 6.0 hours (IP) [nM]” value at RET(KD: 658-1114 G810R) is given as “++++ (<50 nM = ++++)”. Further, the Emax on RET(KD: 658-1114 G810R) and on RET (658-1114) (% remaining protein) was < 30% throughout. The figures for the DC50 at RET(KD: 658-1114 G810R) (setting [1]) and on RET (658-1114) (setting [1]) were < 100 nM and < 50 nM, respectively. Besides, the “293T.144 RET (658-1114) 6.0 hours (IP) [nM]” value (“293T.144 RET” for short) on RET (658-1114) is reported as “++++ (<50 nM = ++++)”.

In the case of `N#Cc1cnn2cc(-c3cnn([C@H]4CC[C@H](N5CCN(c6cc(F)c(NC7CCC(=O)NC7=O)cc6F)CC5)CC4)c3)nc(-c3ccc(N4CC5COCC(C4)N5Cc4ccccn4)nc3)c12` (relative stereo) [Compound 161, 6-[1-[4-[4-[4-[(2,6-dioxo-3-piperidyl)amino]-2,5-difluoro-phenyl]piperazin-1-yl]cyclohexyl]pyrazol-4-yl]-4-[6-[9-(2-pyridylmethyl)-3-oxa-7,9-diazabicyclo[3.3.1]nonan-7-yl]-3-pyridyl]pyrazolo[1,5-a]pyrazine-3-carbonitrile], on RET(KD: 658-1114 G810R), the “293T.165 RET(KD: 658-1114 G810R) 6.0 hours (IP) [nM]” value is “++++ (<50 nM = ++++)”. For the same molecule, the Emax at RET(KD: 658-1114 G810R) and on RET (658-1114) (% remaining protein) was < 30% each time. Further, the DC50 at RET(KD: 658-1114 G810R) (setting [1]) and on RET (658-1114) (setting [1]) was < 50 nM throughout. Besides, at RET (658-1114), the “293T.144 RET” value was “++++ (<50 nM = ++++)”.

Regarding `N#Cc1cnn2cc(-c3cnn(C4CCN(C(=O)CC5(O)CCN(c6ccc(NC7CCC(=O)NC7=O)cc6F)CC5)CC4)c3)nc(-c3ccc(N4CCN(C(=O)c5ccon5)CC4)nc3)c12` (centres unmarked) [Compound 116, 6-(1-(1-(2-(1-(4-((2,6-dioxopiperidin-3-yl)amino)-2-fluorophenyl)-4-hydroxypiperidin-4-yl)acetyl)piperidin-4-yl)-1H-pyrazol-4-yl)-4-(6-(4-(isoxazole-3-carbonyl)piperazin-1-yl)pyridin-3-yl)pyrazolo[1,5-a]pyrazine-3-carbonitrile], the “293T.165 RET(KD: 658-1114 G810R) 6.0 hours (IP) [nM]” value at RET(KD: 658-1114 G810R) is reported as “++++ (<50 nM = ++++)”. For the same molecule, the Emax at RET(KD: 658-1114 G810R) and on RET (658-1114) (% remaining protein) was < 30% in each case. The DC50 at RET(KD: 658-1114 G810R) (setting [1]) and on RET (658-1114) (setting [1]) was < 50 nM each time. Besides, the “293T.144 RET” value on RET (658-1114) is recorded as “++++ (<50 nM = ++++)”.

Take `CCC1(C(=O)NC(C)C)CCN(c2ccc(-c3cc(-c4cnn(C5CCN(C(=O)CN6CCN(c7ccc(NC8CCC(=O)NC8=O)cc7F)CC6)CC5)c4)cn4ncc(C#N)c34)cn2)CC1` (centres unmarked) [Compound 66, 1-[5-[3-cyano-6-[1-[1-[2-[4-[4-[(2,6-dioxo-3-piperidyl)amino]-2-fluoro-phenyl]piperazin-1-yl]acetyl]-4-piperidyl]pyrazol-4-yl]pyrazolo[1,5-a]pyridin-4-yl]-2-pyridyl]-4-ethyl-N-isopropyl-piperidine-4-carboxamide]: the Emax on RET(KD: 658-1114 G810R) is < 30%. Also, at RET(KD: 658-1114 G810R) (setting [1]), the DC50 was < 50 nM. At RET(KD: 658-1114 G810R) (HiBiT-Degradation), the “293T.165 RET(KD: 658-1114 G810R) 6.0 hours (Emax)” value was “++++ (< 30% = ++++)”, the “293T.165 RET(KD: 658-1114 G810R) 6.0 hours (IP) [nM]” value is listed as “++++ (< 50 nM = ++++)” and the DC50 is < 50 nM. For the same molecule, at RET (658-1114) (HiBiT-Degradation), the “293T.144 RET” value is listed as “++++ (< 50 nM = ++++)”, the DC50 was < 50 nM and the maximum response (Emax) is < 30%.

Take `N#Cc1cnn2cc(-c3cnn([C@H]4CC[C@@H](N5CCN(c6ccc(NC7CCC(=O)NC7=O)cc6F)CC5)CC4)c3)nc(-c3ccc(N4C[C@H]5COC[C@@H](C4)N5Cc4ccc(F)cn4)nc3)c12` (single isomer, unassigned) [Compound 151]: on RET(KD: 658-1114 G810R), the “293T.165 RET(KD: 658-1114 G810R) 6.0 hours (IP) [nM]” value is recorded as “++++ (<50 nM = ++++)”. The Emax at RET(KD: 658-1114 G810R) and on RET (658-1114) (% remaining protein) was < 30% in each case. Also, the DC50 at RET(KD: 658-1114 G810R) (setting [1]) and at RET (658-1114) (setting [1]) was < 50 nM throughout. Also, the “293T.144 RET” value at RET (658-1114) is listed as “++++ (<50 nM = ++++)”.

Regarding `CCC1(C(=O)NC2CCC2)CCN(c2ccc(-c3nc(-c4cnn([C@H]5CC[C@H](N6CCN(c7cc(OC)c(N[C@@H]8CCC(=O)NC8=O)cc7F)CC6)CC5)c4)cn4ncc(C#N)c34)cn2)CC1` (single isomer, unassigned) [Compound 135], at RET(KD: 658-1114 G810R), the “293T.165 RET(KD: 658-1114 G810R) 6.0 hours (IP) [nM]” value was “++++ (<50 nM = ++++)”. The Emax at RET(KD: 658-1114 G810R) and on RET (658-1114) (% remaining protein) was < 30% each time. For the same molecule, the DC50 on RET(KD: 658-1114 G810R) (setting [1]) and on RET (658-1114) (setting [1]) was < 50 nM throughout. For the same molecule, the “293T.144 RET” value on RET (658-1114) is given as “++++ (<50 nM = ++++)”.

With `COCC1(Cc2ccccn2)CCN(c2ccc(-c3nc(-c4cnn(C5CCN(C(=O)CC6(O)CCN(c7ccc(NC8CCC(=O)NC8=O)cc7F)CC6)CC5)c4)cn4ncc(C#N)c34)cn2)CC1` (centres unmarked) [Compound 114, 6-[1-[1-[2-[1-[4-[(2,6-dioxo-3-piperidyl)amino]-2-fluoro-phenyl]-4-hydroxy-4-piperidyl]acetyl]-4-piperidyl]pyrazol-4-yl]-4-[6-[4-(methoxymethyl)-4-(2-pyridylmethyl)-1-piperidyl]-3-pyridyl]pyrazolo[1,5-a]pyrazine-3-carbonitrile], on RET(KD: 658-1114 G810R), the “293T.165 RET(KD: 658-1114 G810R) 6.0 hours (IP) [nM]” value is given as “++++ (<50 nM = ++++)”. Moreover, the Emax at RET(KD: 658-1114 G810R) and on RET (658-1114) (% remaining protein) was < 30% in each case. The DC50 at RET(KD: 658-1114 G810R) (setting [1]) and at RET (658-1114) (setting [1]) was < 50 nM each time. Further, the “293T.144 RET” value at RET (658-1114) was “++++ (<50 nM = ++++)”.

On to `CCC1(C(=O)NC2CCC2)CCN(c2ccc(-c3nc(-c4cnn([C@H]5CC[C@H](N6CCN(c7c(F)cc(N[C@@H]8CCC(=O)NC8=O)cc7F)CC6)CC5)c4)cn4ncc(C#N)c34)cn2)CC1` (single isomer, unassigned) [Compound 137], for which the “293T.165 RET(KD: 658-1114 G810R) 6.0 hours (IP) [nM]” value at RET(KD: 658-1114 G810R) is recorded as “++++ (<50 nM = ++++)”. The Emax on RET(KD: 658-1114 G810R) and on RET (658-1114) (% remaining protein) was < 30% each time. For the same molecule, the DC50 at RET(KD: 658-1114 G810R) (setting [1]) and on RET (658-1114) (setting [1]) was < 50 nM in each case. Moreover, the “293T.144 RET” value on RET (658-1114) is “++++ (<50 nM = ++++)”.

In the case of `CCC1(C(=O)NC(C)C)CCN(c2ccc(-c3nc(-c4cnn(C5CC6(C5)CN(C(=O)CC5(O)CCN(c7ccc(NC8CCC(=O)NC8=O)cc7F)CC5)C6)c4)cn4ncc(C#N)c34)cn2)CC1` (centres unmarked) [Compound 183, 1-[5-[3-cyano-6-[1-[2-[2-[1-[4-[(2,6-dioxo-3-piperidyl)amino]-2-fluoro-phenyl]-4-hydroxy-4-piperidyl]acetyl]-2-azaspiro[3.3]heptan-6-yl]pyrazol-4-yl]pyrazolo[1,5-a]pyrazin-4-yl]-2-pyridyl]-4-ethyl-N-isopropyl-piperidine-4-carboxamide], the “293T.165 RET(KD: 658-1114 G810R) 6.0 hours (IP) [nM]” value on RET(KD: 658-1114 G810R) is “++++ (<50 nM = ++++)”. For the same molecule, the maximal effect (Emax) on RET(KD: 658-1114 G810R) and on RET (658-1114) (% remaining protein) was < 30% throughout. Further, the DC50 on RET(KD: 658-1114 G810R) (setting [1]) and on RET (658-1114) (setting [1]) was < 50 nM each time. The “293T.144 RET” value on RET (658-1114) is reported as “++++ (<50 nM = ++++)”.

For the molecule `CCC1(C(=O)NC(C)C)CCN(c2ccc(-c3nc(-c4cnn(C5CCN(C(=O)Cc6ccc(-c7ccc(NC8CCC(=O)NC8=O)cc7F)cc6)CC5)c4)cn4ncc(C#N)c34)cn2)CC1` (centres unmarked) [Compound 89, 1-[5-[3-cyano-6-[1-[1-[2-[4-[4-[(2,6-dioxo-3-piperidyl)amino]-2-fluoro-phenyl]phenyl]acetyl]-4-piperidyl]pyrazol-4-yl]pyrazolo[1,5-a]pyrazin-4-yl]-2-pyridyl]-4-ethyl-N-isopropyl-piperidine-4-carboxamide], the “293T.165 RET(KD: 658-1114 G810R) 6.0 hours (IP) [nM]” value at RET(KD: 658-1114 G810R) is given as “++++ (<50 nM = ++++)”. The figures for the Emax on RET(KD: 658-1114 G810R) and at RET (658-1114) (% remaining protein) were < 50% and < 30%, respectively. Also, the DC50 at RET(KD: 658-1114 G810R) (setting [1]) is < 100 nM; on RET (658-1114) (setting [1]), < 50 nM. Besides, at RET (658-1114), the “293T.144 RET” value was “++++ (<50 nM = ++++)”.
